Tested on: migraine and tension headaches
Test: treatment of pain from migraine and tension headaches with Q-10 (oral capsules vs nasal formulation)
Format: in vivo
Conditions: oral administration of from 600 to 800 mg of Q-10 in the form of capsules
Excerpt: The spray according to the invention is preferably an oral or nasal spray, so that the administration of ubiquinone Qn or ubiquinone Qn precursors can be effected on an inhalative or intranasal route. The spray according to the invention is useful, in particular, for the treatment of pain conditions as encountered in migraine and neuropathy, in neural disorders, such as depressions, psychoses, lack of concentration, and in neurodegenerative diseases, such as Alzheimer's, Parkinson's, Huntington's, multiple sclerosis and cerebral paresis. The application as an oral or nasal spray seems to accelerate the transport of ubiquinone Qn or its precursors through the blood-brain barrier. […] In principle, however, doses of as high as 1000 mg can be employed.

COC1=C(OC)C(=O)C(C/C=C(\C)CC/C=C(\C)CC/C=C(\C)CC/C=C(\C)CC/C=C(\C)CC/C=C(\C)CC/C=C(\C)CC/C=C(\C)CC/C=C(\C)CCC=C(C)C)=C(C)C1=O [Q-10, 2,3-dimethoxy-5-methyl-6-deca-prenyl-1,4-benzoquinone]
effect on migraine: virtually no effect

Reference: US20050019268A1, “Spray containing ubiquinone Qn” (MSE Pharmazeutika GmbH, priority 1999, published 2005)
